According to paper PMC3734253, “A Novel Color Change Mechanism for Breast Cancer Biomarker Detection: Naphthoquinones as Specific Ligands of Human Arylamine N-Acetyltransferase 1” (PLoS ONE, 2013):

What was measured:
[1] = Acid-base (pH) titration by visible spectra; assay type: physicochemical; settings: panel of buffered solutions at diverse pHs with 5% DMSO; 5% DMSO/95% H2O
Procedure: 5 μL of 1 in DMSO (final concentration 0.1 mM) was added to 95 μL of a panel of solutions buffered at diverse pHs in a flat-bottomed 96-well plate (Corning). Visible spectra of the samples were recorded from 800 to 350 nm on the FLUOstar Omega plate reader (BMG Labtech), then the λmax were determined for all spectra and plotted against pH. A sigmoidal titration curve was fitted using GraphPad®.

mNat2 [2] = biological target: T1, mNat2 (Mus musculus, UniProt P50295); assay: Visible spectrum of compound in presence of mNat2; assay type: binding; settings: with mNat2, 20 mM Tris.HCl pH 8
T1 construct: hexa-histidine tag (cleaved yes); made in house; host or cells: E. coli Rosetta(DE3)pLysS
T1 sequence (P50295 1-290): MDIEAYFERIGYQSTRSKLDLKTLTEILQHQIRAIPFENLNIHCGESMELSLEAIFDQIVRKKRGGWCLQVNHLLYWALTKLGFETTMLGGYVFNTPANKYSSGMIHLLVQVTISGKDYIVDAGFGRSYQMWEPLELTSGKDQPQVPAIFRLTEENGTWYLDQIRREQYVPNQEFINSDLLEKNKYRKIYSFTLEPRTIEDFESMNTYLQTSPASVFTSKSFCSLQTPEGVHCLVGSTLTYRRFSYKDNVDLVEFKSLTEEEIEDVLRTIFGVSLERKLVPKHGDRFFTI
Procedure: (§1) Visible spectra of each compound were recorded with a U-2001 spectrophotometer (Hitachi) using 1 mL plastic cells of 1 cm path-length (FisherBrand) or 50 μL UVettes® (Eppendorf). Concentrations of inhibitors and protein used are given in the appropriate figure legends. All spectra were blank-corrected.
(§2) 15 μM compound 4 was prepared using different conditions: 20 mM aq Tris.HCl, pH 8, 5% DMSO (v/v); 80 mM aq NaOH, pH 13.75, 5% DMSO (v/v); with hNAT1 (30 μM) in 20 mM aq Tris.HCl, pH 8, 5% DMSO (v/v); with mNat2 (30 μM) 20 mM aq Tris.HCl, pH 8, 5% DMSO (v/v). Wavelength scans from 800 to 350 nm were recorded against the respective blanks containing no compound 4.
as §2, with “5” for “4”, “5.” for “4.”

hNAT2 [3] = biological target: T2, hNAT2 (Homo sapiens, UniProt P11245); assay: AcCoA hydrolysis assay, inhibition of hNAT2; assay type: biochemical; settings: for enzyme activity retained: hNAT2, inhibitor concentration 30 µM
T2 sequence (P11245 1-290): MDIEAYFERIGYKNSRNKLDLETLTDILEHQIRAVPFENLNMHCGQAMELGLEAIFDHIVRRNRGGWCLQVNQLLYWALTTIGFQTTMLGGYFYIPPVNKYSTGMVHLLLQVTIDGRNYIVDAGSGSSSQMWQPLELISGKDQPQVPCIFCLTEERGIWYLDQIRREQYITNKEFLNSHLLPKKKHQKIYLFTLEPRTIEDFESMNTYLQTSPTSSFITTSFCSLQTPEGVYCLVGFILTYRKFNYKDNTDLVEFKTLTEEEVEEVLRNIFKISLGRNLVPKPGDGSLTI
Procedure: (§3) NAT activity was determined as previously described,[23]; a full procedure is outlined in the (File S1).
(§4) NAT activity was determined by AcCoA hydrolysis assays. The NAT isoform (100 ng) was pre-incubated with para-amino benzoic acid (500 μM) in the assay buffer (5% DMSO/95% 20mM aq Tris.HCl, pH 8.0) for 5 min. at 37 °C in a 96-well plate (Corning). Pre-warmed AcCoA (400 μM, 37 °C) in assay buffer was added to start the reaction (final volume of 100 μL), which was allowed to proceed at 37 °C. Simultaneous quenching and color development was achieved by addition of 25 μL DTNB solution (5 mM DTNB in 100 mM aq Tris.HCl, 6.4 M guanidine.HCl, pH 7.5). The absorbance was immediately read at 405 nm using a plate reader (Tecan Sunrise). The rate of reaction was determined by reference to a standard curve and controls with buffer alone were carried out. For detection of inhibition, the inhibitors tested were dissolved in DMSO and the final percentage of DMSO in the assay was 5% (v/v). […] A dose-response function was used as a model of regression for the data and the curves were estimated by the method of the least squares analysis.

mNat1 [4] = biological target: T3, mNat1 (Mus musculus, UniProt P50294); assay: AcCoA hydrolysis assay, inhibition of mNat1; assay type: biochemical; settings: enzyme mNat1, read-out: % Inhibition at 30 μM of 1
T3 construct: hexa-histidine tag (cleaved yes); made in house; host or cells: E. coli Rosetta(DE3)pLysS
T3 sequence (P50294 1-290): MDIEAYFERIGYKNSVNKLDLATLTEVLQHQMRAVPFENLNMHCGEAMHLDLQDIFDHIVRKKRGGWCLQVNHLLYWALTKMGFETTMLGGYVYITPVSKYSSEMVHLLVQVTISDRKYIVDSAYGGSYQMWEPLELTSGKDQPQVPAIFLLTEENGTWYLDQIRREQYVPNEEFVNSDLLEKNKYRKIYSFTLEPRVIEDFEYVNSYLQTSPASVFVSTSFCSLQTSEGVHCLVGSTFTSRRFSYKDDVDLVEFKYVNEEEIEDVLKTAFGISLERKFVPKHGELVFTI
Procedure: as §3, §4

[5] = biological target: T4, hNAT1 (human arylamine N-acetyltransferase 1) (Homo sapiens, UniProt P18440); assay: AcCoA hydrolysis assay, inhibition of hNAT1; assay type: biochemical; settings: for IC50: pABA 500 μM, AcCoA 400 μM, pH 8.0, 5% DMSO
T4 construct: made in house
T4 sequence (P18440 1-290): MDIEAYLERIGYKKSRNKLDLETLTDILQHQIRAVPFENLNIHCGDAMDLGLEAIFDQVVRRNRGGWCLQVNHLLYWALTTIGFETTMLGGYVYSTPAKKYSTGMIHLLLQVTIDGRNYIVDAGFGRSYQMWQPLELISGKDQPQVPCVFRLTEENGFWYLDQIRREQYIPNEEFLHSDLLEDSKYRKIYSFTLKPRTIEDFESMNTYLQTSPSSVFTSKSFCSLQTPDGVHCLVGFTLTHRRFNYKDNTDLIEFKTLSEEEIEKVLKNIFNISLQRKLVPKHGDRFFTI
Procedure: as §3, §4

mNat2 [6] = biological target: T1, mNat2; assay: AcCoA hydrolysis assay, inhibition of mNat2 (wild type); assay type: biochemical; settings: for IC50: mNat2_WT, pABA 500 μM, AcCoA 400 μM, pH 8.0, 5% DMSO
hNAT2 [7] = biological target: T2, hNAT2; assay: Visible spectrum of compound in presence of hNAT2; assay type: binding; settings: with hNAT2
Procedure: as §1

mNat1 [8] = biological target: T3, mNat1; assay: Visible spectrum of compound in presence of mNat1; assay type: binding; settings: with mNat1
Procedure: as §1

hNAT1 = biological target: T5, hNAT1 (Homo sapiens, UniProt P18440); assay: Visible spectrum of compound in presence of hNAT1; assay type: binding; settings: with hNAT1, 20 mM Tris.HCl pH 8
T5 construct: made in house
T5 sequence (P18440 1-290): T4 sequence (P18440 1-290)
Procedure: as §1, §2
as §2, with “5” for “4”, “5.” for “4.”

[9] = Solubility under NMR conditions for active protein; assay type: physicochemical; settings: 5% DMSO-d6/95% D2O, for 15N-NMR

SMILES | λmax in presence of mNat2 (mNat2 [2]) | IC50 [5] | IC50 (mNat2 [6]) | λmax in presence of hNAT1 (hNAT1) | enzyme activity retained (hNAT2 [3]) | other results
Cc1cc(C)cc(NC2=C(NS(=O)(=O)c3ccccc3)C(=O)c3ccccc3C2=O)c1 [compound 1, N-(3-(3’’,5’’-Dimethylphenylamino)-1,4-dioxo-1,4-dihydronaphthalen-2-yl)benzenesulfonamide] | 625 nm | 5.3 µM | 1.9 µM | 585 nm | – | pKa [1]: ~9.2; inhibition at 30 µM (hNAT2 [3]; 30 μM, enzyme hNAT2, read-out: % Inhibition at 30 μM of 1): 10.6 ± 2%; inhibition at 30 µM (mNat1 [4]): 37.6 ± 1.6%; inhibition at 30 µM ([5]; 30 μM, enzyme hNAT1): 93.3 ± 0.9%; inhibition at 30 µM (mNat2 [6]; 30 μM, enzyme mNat2, read-out: % Inhibition at 30 μM of 1): 92.4 ± 4.4%; Ki (mNat2 [6]; competitive towards pABA (25-250 µM), AcCoA 400 µM, 9 ng pure recombinant mNat2, Dixon plot, read-out: Ki (app.)): 0.42 µM; λmax in presence of hNAT2 (hNAT2 [7]): 498 nm; λmax in presence of mNat1 (mNat1 [8]): 498 nm
Cc1cc(C)cc(NC2=C([15NH]S(=O)(=O)c3ccccc3)C(=O)c3ccccc3C2=O)c1 [compound 2, N-(3-(3’’,5’’-Dimethylphenylamino)-1,4-dioxo-1,4-dihydronaphthalen-2-yl)^15N-benzenesulfonamide] | – | – | – | – | – | solubility [9]: insufficiently soluble
Cc1cc(C)cc(NC2=C(N(C)S(=O)(=O)c3ccccc3)C(=O)c3ccccc3C2=O)c1 [compound 3, N-(3-(3’’,5’’-Dimethylphenylamino)-1,4-dioxo-1,4-dihydronaphthalen-2-yl)-N-methylbenzenesulfonamide] | 490 nm | – | – | 476 nm | more than 90% | –
COS(=O)(=NC1=C(Nc2cc(C)cc(C)c2)C(=O)c2ccccc2C1=O)c1ccccc1 (stereo not shown) [compound 4, Methyl-N-3-(3’’,5’’-dimethylphenylamino)-1,4-dioxo-1,4-dihydronaphthalen-2-ylbenzenesulfonimidate] | 548 nm | 3.6 µM | 14.6 µM | – | more than 90% | melting point: 71 to 74 °C
Cc1cc(C)cc(NC2=C(OS(=O)(=O)c3ccccc3)C(=O)c3ccccc3C2=O)c1 [compound 5, 3-((3’’,5’’-Dimethylphenyl)amino)-1,4-dioxo-1,4-dihydronaphthalen-2-ylbenzenesulfonate] | 492 nm | 93 µM | > 150 µM | 492 nm | – | –
